The supplement of paper PMC10307832

Key:
Assay in all cases: relative viability (nuclei count vs DMSO), 5 days (fraction); higher = more cells survive
[1] = test system: HCC-44
How it was run: (§1)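 Dosing by pin tool came one day after lung cancer cell lines were seeded in 1536-well plates, using either one drug or a fixed anchor-drug dose plus five library-drug doses (not always all listed) in √10 steps. After 5 days, nuclei were counted on 4× images. Relative viability is treated-well nuclei count divided by vehicle-well nuclei count, and values are medians of duplicate plates.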

[2] = test system: LCLC-103H
How it was run: as §1

[3] = test system: EPLC-272H
How it was run: as §1

[4] = test system: NCI-H2023
How it was run: as §1

[5] = test system: NCI-H650
How it was run: as §1

[6] = test system: NCI-H2405
How it was run: as §1

[7] = test system: ChaGo-K-1
How it was run: as §1

[8] = test system: NCI-H23
How it was run: as §1

[9] = test system: NCI-H1437
How it was run: as §1

[10] = test system: NCI-H2009
How it was run: as §1

[11] = test system: EMC-BAC-2
How it was run: as §1

[12] = test system: NCI-H441
How it was run: as §1

[13] = test system: NCI-H2347
How it was run: as §1

[14] = test system: NCI-H520
How it was run: as §1

[15] = test system: LOU-NH91
How it was run: as §1

[16] = test system: HOP-62
How it was run: as §1

[17] = test system: NCI-H2126
How it was run: as §1

[18] = test system: NCI-H727
How it was run: as §1

[19] = test system: SW 1573
How it was run: as §1

[20] = test system: NCI-H2170
How it was run: as §1

[21] = test system: NCI-H460
How it was run: as §1

[22] = test system: NCI-H647
How it was run: as §1

[23] = test system: NCI-H1793
How it was run: as §1

Cc1cnc(-c2cnc(NCCNc3ccc(C#N)cn3)nc2-c2ccc(Cl)cc2Cl)[nH]1 + N=C(N)NC(=N)NCCc1ccccc1 [Phenformin] (partner 250 µM)
relative viability ([1]; first compound 0.08 µM): 0.209
relative viability ([1]; first compound 0.253 µM): 0.192
relative viability ([1]; first compound 0.8 µM): 0.182
relative viability ([1]; first compound 2.53 µM): 0.139
relative viability ([2]; first compound 0.08 µM): 0.273
relative viability ([2]; first compound 0.253 µM): 0.342
relative viability ([2]; first compound 0.8 µM): 0.31
relative viability ([2]; first compound 2.53 µM): 0.3
relative viability ([3]; first compound 0.08 µM): 0.333
relative viability ([3]; first compound 0.253 µM): 0.318
relative viability ([3]; first compound 0.8 µM): 0.315
relative viability ([3]; first compound 2.53 µM): 0.316
relative viability ([4]; first compound 0.08 µM): 0.436
relative viability ([4]; first compound 0.253 µM): 0.413
relative viability ([4]; first compound 0.8 µM): 0.422
relative viability ([4]; first compound 2.53 µM): 0.33
relative viability ([5]; first compound 0.08 µM): 0.468
relative viability ([5]; first compound 0.253 µM): 0.438
relative viability ([5]; first compound 0.8 µM): 0.489
relative viability ([5]; first compound 2.53 µM): 0.417
relative viability ([6]; first compound 0.08 µM): 0.385
relative viability ([6]; first compound 0.253 µM): 0.418
relative viability ([6]; first compound 0.8 µM): 0.398
relative viability ([6]; first compound 2.53 µM): 0.358
relative viability ([7]; first compound 0.08 µM): 0.493
relative viability ([7]; first compound 0.253 µM): 0.375
relative viability ([7]; first compound 0.8 µM): 0.44
relative viability ([7]; first compound 2.53 µM): 0.413
relative viability ([8]; first compound 0.08 µM): 0.836
relative viability ([8]; first compound 0.253 µM): 0.69
relative viability ([8]; first compound 0.8 µM): 0.742
relative viability ([8]; first compound 2.53 µM): 0.782
relative viability ([9]; first compound 0.08 µM): 0.304
relative viability ([9]; first compound 0.253 µM): 0.357
relative viability ([9]; first compound 0.8 µM): 0.297
relative viability ([9]; first compound 2.53 µM): 0.295
relative viability ([10]; first compound 0.08 µM): 0.499
relative viability ([10]; first compound 0.253 µM): 0.442
relative viability ([10]; first compound 0.8 µM): 0.489
relative viability ([10]; first compound 2.53 µM): 0.271
relative viability ([11]; first compound 0.08 µM): 0.578
relative viability ([11]; first compound 0.253 µM): 0.507
relative viability ([11]; first compound 0.8 µM): 0.542
relative viability ([11]; first compound 2.53 µM): 0.467
relative viability ([12]; first compound 0.08 µM): 0.841
relative viability ([12]; first compound 0.253 µM): 0.756
relative viability ([12]; first compound 0.8 µM): 0.714
relative viability ([12]; first compound 2.53 µM): 0.864
relative viability ([13]; first compound 0.08 µM): 0.425
relative viability ([13]; first compound 0.253 µM): 0.5
relative viability ([13]; first compound 0.8 µM): 0.397
relative viability ([13]; first compound 2.53 µM): 0.477
relative viability ([14]; first compound 0.08 µM): 0.861
relative viability ([14]; first compound 0.253 µM): 0.628
relative viability ([14]; first compound 0.8 µM): 0.542
relative viability ([14]; first compound 2.53 µM): 0.641
relative viability ([15]; first compound 0.08 µM): 0.769
relative viability ([15]; first compound 0.253 µM): 0.674
relative viability ([15]; first compound 0.8 µM): 0.756
relative viability ([15]; first compound 2.53 µM): 0.567
relative viability ([16]; first compound 0.08 µM): 0.754
relative viability ([16]; first compound 0.253 µM): 0.596
relative viability ([16]; first compound 0.8 µM): 0.685
relative viability ([16]; first compound 2.53 µM): 0.427
relative viability ([17]; first compound 0.08 µM): 0.526
relative viability ([17]; first compound 0.253 µM): 0.533
relative viability ([17]; first compound 0.8 µM): 0.506
relative viability ([17]; first compound 2.53 µM): 0.567
relative viability ([18]; first compound 0.08 µM): 0.488
relative viability ([18]; first compound 0.253 µM): 0.478
relative viability ([18]; first compound 0.8 µM): 0.478
relative viability ([18]; first compound 2.53 µM): 0.597
relative viability ([19]; first compound 0.08 µM): 0.515
relative viability ([19]; first compound 0.253 µM): 0.334
relative viability ([19]; first compound 0.8 µM): 0.436
relative viability ([19]; first compound 2.53 µM): 0.3
relative viability ([20]; first compound 0.08 µM): 0.422
relative viability ([20]; first compound 0.253 µM): 0.351
relative viability ([20]; first compound 0.8 µM): 0.412
relative viability ([20]; first compound 2.53 µM): 0.348
relative viability ([21]; first compound 0.08 µM): 0.551
relative viability ([21]; first compound 0.253 µM): 0.452
relative viability ([21]; first compound 0.8 µM): 0.513
relative viability ([21]; first compound 2.53 µM): 0.41
relative viability ([22]; first compound 0.08 µM): 0.598
relative viability ([22]; first compound 0.253 µM): 0.362
relative viability ([22]; first compound 0.8 µM): 0.391
relative viability ([22]; first compound 2.53 µM): 0.28
relative viability ([23]; first compound 0.08 µM): 0.397
relative viability ([23]; first compound 0.253 µM): 0.333
relative viability ([23]; first compound 0.8 µM): 0.355
relative viability ([23]; first compound 2.53 µM): 0.375
